The subject of one experiment is SARS-CoV-2 replicon. Nature of the experiment: microbe, parasite or virus in culture. Format: cell-based. Conditions: read-out: Replicon EC50. (In general: A replicon is a self-replicating genome or part of one, used to study replication in cells.)
A further experiment addresses T1, COVID-19 WT Mpro (Severe acute respiratory syndrome coronavirus 2, UniProt P0DTD1).
T1 construct: The C-His6-tagged COVID-19 WT Mpro (NC_045512); His6 (C); host or cells: E. coli
As to the kind of experiment: biochemical. Conditions: WT Mpro 25 nM, substrate 25 μM, 30 min pre-incubation; several values in a cell = repeat determinations.

For experiment [1], the system named is human coronavirus (HCoV) 229E. As to the kind of experiment: microbe, parasite or virus in culture. The settings on record: unidentified human coronavirus, 72 h, MRCS cells, HCoV 229E, 3 days, CellTiter Glo; read-out: 229E CPE EC50. The experiment is classed as cell-based, human coronavirus 229E. On the technique in general: In ATP-based viability assays light output follows the ATP content of the culture.
Method: Test compounds were provided by the sponsor. Reference compound remdesivir was provided by WuXi AppTec. Compounds were assayed at 8 concentrations (to be defined by sponsor), in duplicate wells.
MRCS cells were obtained from the ATCC, and maintained in the Minimum Essential Medium supplemented with 10% FBS, 1% L-glutamine, 1% NEAA and 1% penicillin-streptomycin. Minimum Essential Medium supplemented with 5% FBS, 1% L-glutamine, 1% NEAA and 1% penicillin-streptomycin was used as the assay medium.
Cells were seeded in 96 well plates, in 100 μl per well of assay medium, and cultured at 37° C. and 5% CO2 overnight. Next day, test compound was diluted with assay medium and then added into the cells, 50 μl per well. Then 50 μl per well of assay medium diluted virus was added. The final volume of the cell culture was 200 μl per well. […] The CPE were measured by CellTiter Glo following the manufacturer's manual. The antiviral activity of compounds was calculated based on the protection of the virus-induced CPE at each concentration normalized by the virus control.
EC50 and CC50 values were calculated using the GraphPad Prism software using the nonlinear regression model of log(inhibitor) vs. response—Variable slope (four parameters).

[2] abbreviates: Severe acute respiratory syndrome coronavirus 2, Huh-7, 24 h.

SMILES strings stand for the structures. “And” between values parts separate entries of the source, which are not always exact repeats. Identical values can stand only once. Like-named read-outs stand apart in the source and are kept apart here.

What is called EC50 is the concentration that produces a half-maximal response. One may read the IC50 as the midpoint of a concentration-inhibition curve. Low readings indicate greater potency, high ones weaker potency.

With `CC1(C)[C@@H]2[C@@H](C(=O)N[C@H](C#N)C[C@@H]3CCNC3=O)N(C(=O)[C@@H]3CCCN3C(=O)C(F)(F)F)C[C@@H]21` [Compound 5], the 50% effective concentration (EC50) in the experiment on SARS-CoV-2 replicon (setting [2]) is greater than 30000 nM. In addition, the IC50 at COVID-19 WT Mpro is greater than 30000 nM.
Take `CC1(C)[C@@H]2[C@@H](C(=O)N[C@H](C#N)C[C@@H]3CCNC3=O)N(C(=O)[C@@H]3CCN3C(=O)C(F)(F)F)C[C@@H]21` [Compound 6]: the EC50 in the experiment on SARS-CoV-2 replicon (setting [2]) is greater than 30000 nM. This compound gave an IC50 at COVID-19 WT Mpro of 17300 nM.
For `COC(=O)N(C(=O)C(F)(F)F)[C@H](C(=O)N1C[C@H]2[C@@H]([C@H]1C(=O)N[C@H](C#N)C[C@@H]1CCNC1=O)C2(C)C)C(C)(C)C` [Compound 8], in that order: 3110 nM and greater than 30000 nM.
On to `CC1(C)[C@@H]2[C@@H](C(=O)N[C@@H](C[C@@H]3CCNC3=O)C(=O)c3nc4ccccc4s3)N(C(=O)[C@@H]3CCCN3C(=O)C(F)(F)F)C[C@@H]21` [Compound 10], for which the EC50 in the experiment on SARS-CoV-2 replicon (setting [2]) was determined as 22700 nM. The IC50 against COVID-19 WT Mpro was greater than 30000 nM.
For `CC1(C)[C@@H]2[C@@H](C(=O)N[C@@H](C[C@@H]3CCNC3=O)C(=O)c3nc4ccccc4s3)N(C(=O)[C@@H]3CCN3C(=O)C(F)(F)F)C[C@@H]21` [Compound 11], in that order: 25500 nM and 11000 nM.
In the case of `CC(C)(C)[C@H](NC(=O)[C@@H](NC(=O)c1cnccn1)C1CCCCC1)C(=O)N1C[C@H]2[C@@H]([C@H]1C(=O)N[C@H](C#N)C[C@@H]1CCNC1=O)C2(C)C` [Compound 13], the EC50 came to 1630 nM in the experiment on SARS-CoV-2 replicon (setting [2]), 1920 nM with SARS-CoV-2 replicon and 9820 nM in experiment [1]. The IC50 against COVID-19 WT Mpro was 66 nM and 256 nM.
On to `CC(C)(C)[C@H](NC(=O)[C@H](NC(=O)c1cnccn1)C1CCCCC1)C(=O)N1C[C@H]2[C@@H]([C@H]1C(=O)N[C@H](C#N)C[C@@H]1CCNC1=O)C2(C)C` [Compound 14], for which the EC50 in the experiment with SARS-CoV-2 replicon (setting [2]) is greater than 30000 nM. Besides, at COVID-19 WT Mpro, the concentration for half-maximal inhibition (IC50) was greater than 30000 nM.
In the case of `CC(C)(C)[C@H](NC(=O)C(F)(F)F)C(=O)N1C[C@H]2[C@@H]([C@H]1C(=O)N[C@H](C#N)Cc1cncnc1)C2(C)C` [Compound 15], the EC50 in the experiment on SARS-CoV-2 replicon (setting [2]) is greater than 30000 nM. In addition, the half-maximal inhibitory concentration (IC50) at COVID-19 WT Mpro is greater than 30000 nM.
Turning to `CC(C)(C)OC(=O)N1C2CCC1CC(C(=O)N[C@H](C(=O)N1C[C@H]3[C@@H]([C@H]1C(=O)N[C@H](C#N)C[C@@H]1CCNC1=O)C3(C)C)C(C)(C)C)C2` (stereo partly drawn) [Compound 17], the results for the EC50 (in the experiment with SARS-CoV-2 replicon (setting [2]); in experiment [1]) were 2640 nM and 7960 nM, respectively. In addition, on COVID-19 WT Mpro, the IC50 was 704 nM.
The like results for `CC(C)(C)[C@H](NC(=O)C1CC2CCC(C1)O2)C(=O)N1C[C@H]2[C@@H]([C@H]1C(=O)N[C@H](C#N)C[C@@H]1CCNC1=O)C2(C)C` (stereo partly drawn) [Compound 19] were, in that order, greater than 30000 nM, greater than 30000 nM and 3710 nM.
For `CC(C)(C)[C@H](NC(=O)C1COC1)C(=O)N1C[C@H]2[C@@H]([C@H]1C(=O)N[C@H](C#N)C[C@@H]1CCNC1=O)C2(C)C` [Compound 21], in that order: greater than 30000 nM, greater than 30000 nM and 161 nM.
For the compound `CC(C)(C)[C@H](NC(=O)c1ccc2cc[nH]c2c1)C(=O)N1C[C@H]2[C@@H]([C@H]1C(=O)N[C@H](C#N)C[C@@H]1CCNC1=O)C2(C)C` [Compound 42], the EC50 in the experiment on SARS-CoV-2 replicon (setting [2]) is 2480 nM. Moreover, the IC50 against COVID-19 WT Mpro turned out to be 121 nM.
The like results for `CC(C)(C)[C@H](NC(=S)NC1CCCCC1)C(=O)N1C[C@H]2[C@@H]([C@H]1C(=O)N[C@H](C#N)C[C@@H]1CCNC1=O)C2(C)C` [Compound 43] were, in that order, 3210 nM and 1230 nM.
For `CC(C)(C)[C@H](NC(=O)C1Cc2ccccc2N1)C(=O)N1C[C@H]2[C@@H]([C@H]1C(=O)N[C@H](C#N)C[C@@H]1CCNC1=O)C2(C)C` (stereo partly drawn) [Compound 45], in that order: 960 nM and 385 nM.
Take `CC(C)(C)[C@H](NC(=O)[C@H]1C[C@H]2CCCC[C@H]2N1)C(=O)N1C[C@H]2[C@@H]([C@H]1C(=O)N[C@H](C#N)C[C@@H]1CCNC1=O)C2(C)C` [Compound 46]: in the experiment on SARS-CoV-2 replicon (setting [2]), the 50% effective concentration (EC50) is greater than 30000 nM. Moreover, the half-maximal inhibitory concentration (IC50) against COVID-19 WT Mpro was 7500 nM.
The like results for `CC(C)(C)[C@H](NC(=O)N1CCOCC1)C(=O)N1C[C@H]2[C@@H]([C@H]1C(=O)N[C@H](C#N)C[C@@H]1CCNC1=O)C2(C)C` [Compound 48] were, in that order, 22000 nM and 224 nM.
`CC1(C)[C@@H]2[C@@H](C(=O)N[C@H](C#N)C[C@@H]3CCNC3=O)N(C(=O)[C@@H](NC(=O)C(F)(F)F)C34CC(C3)C4)C[C@@H]21` [Compound 50]: in the experiment with SARS-CoV-2 replicon (setting [2]), the EC50 amounted to 270 nM. This compound gave an IC50 against COVID-19 WT Mpro of 60 nM.
The like results for `CC(C)(C)[C@H](NC(=O)c1cc2ccccn2n1)C(=O)N1C[C@H]2[C@@H]([C@H]1C(=O)N[C@H](C#N)C[C@@H]1CCNC1=O)C2(C)C` [Compound 51] were, in that order, 9540 nM and 9400 nM.
The like results for `CC(C)(C)[C@H](NC(=O)N1CCCCC1)C(=O)N1C[C@H]2[C@@H]([C@H]1C(=O)N[C@H](C#N)C[C@@H]1CCNC1=O)C2(C)C` [Compound 55] were, in that order, 6040 nM and 1050 nM.
For `CC(C)(C)OC(=O)N1CCCC1(C)C(=O)N[C@H](C(=O)N1C[C@H]2[C@@H]([C@H]1C(=O)N[C@H](C#N)C[C@@H]1CCNC1=O)C2(C)C)C(C)(C)C` (stereo partly drawn) [Compound 57], in that order: 400 nM and 57 nM.
Regarding `C/C(=C\C(=O)N[C@H](C(=O)N1C[C@H]2[C@@H]([C@H]1C(=O)N[C@H](C#N)C[C@@H]1CCNC1=O)C2(C)C)C(C)(C)C)C(F)(F)F` [Compound 140], the EC50 in the experiment on SARS-CoV-2 replicon (setting [2]) is 350 nM; with SARS-CoV-2 replicon, 410 nM; in experiment [1] it was 619 nM.
For `CC(C)(C)[C@H](NC(=O)C(F)(F)Cl)C(=O)N1C[C@H]2[C@@H]([C@H]1C(=O)N[C@H](C#N)C[C@@H]1CCNC1=O)C2(C)C` [Compound 141], in that order: 4.8 nM, 7 nM and 68 nM.
For `Cc1c(C)c(C)c(S(=O)(=O)N[C@H](C(=O)N2C[C@H]3[C@@H]([C@H]2C(=O)N[C@H](C#N)C[C@@H]2CCNC2=O)C3(C)C)C(C)(C)C)c(C)c1C` [Compound 142], in that order: 160 nM, 170 nM and 283 nM.
Take `CC(C)(C)[C@H](NC(=O)C1(C(F)(F)F)CC1)C(=O)N1C[C@H]2[C@@H]([C@H]1C(=O)N[C@H](C#N)C[C@@H]1CCNC1=O)C2(C)C` [Compound 151]: the EC50 in the experiment on SARS-CoV-2 replicon (setting [2]) worked out at 85 nM; in experiment [1], 207 nM.
For the compound `CC(C)(C)[C@H](NC(=O)C#Cc1ccc(C(F)(F)F)cc1)C(=O)N1C[C@H]2[C@@H]([C@H]1C(=O)N[C@H](C#N)C[C@@H]1CCNC1=O)C2(C)C` [Compound 154], the figures for the EC50 (with SARS-CoV-2 replicon (setting [2]); in experiment [1]) were 180 nM and 511 nM, respectively.
`COc1cc(/C=C/C(=O)N[C@H](C(=O)N2C[C@H]3[C@@H]([C@H]2C(=O)N[C@H](C#N)C[C@@H]2CCNC2=O)C3(C)C)C(C)(C)C)cc(OC)c1` [Compound 157]: the 50% effective concentration (EC50) turned out to be 320 nM in the experiment on SARS-CoV-2 replicon (setting [2]) and 6940 nM in experiment [1].
The like results for `CC(C)(C)[C@H](NC(=O)C=C(C(F)(F)F)C(F)(F)F)C(=O)N1C[C@H]2[C@@H]([C@H]1C(=O)N[C@H](C#N)C[C@@H]1CCNC1=O)C2(C)C` [Compound 158] were, in that order, greater than 10000 nM and greater than 30000 nM.
For `CC(C)(C)[C@H](NC(=O)C(F)C(F)(F)F)C(=O)N1C[C@H]2[C@@H]([C@H]1C(=O)N[C@H](C#N)C[C@@H]1CCNC1=O)C2(C)C` (stereo partly drawn) [Compound 159], in that order: 30 nM and 134 nM.
For `CC(C)=C(Cl)C(=O)N[C@H](C(=O)N1C[C@H]2[C@@H]([C@H]1C(=O)N[C@H](C#N)C[C@@H]1CCNC1=O)C2(C)C)C(C)(C)C` [Compound 160], the EC50 was found to be 160 nM with SARS-CoV-2 replicon (setting [2]) and 193 nM in experiment [1].
For `CC(C)(C)[C@H](NC(=O)CC(F)(F)F)C(=O)N1C[C@H]2[C@@H]([C@H]1C(=O)N[C@H](C#N)C[C@@H]1CCNC1=O)C2(C)C` [Compound 161], in that order: 180 nM and 585 nM.
The like results for `CC(C)(C)[C@H](NC(=O)/C(F)=C(\F)C(F)(C(F)(F)F)C(F)(F)F)C(=O)N1C[C@H]2[C@@H]([C@H]1C(=O)N[C@H](C#N)C[C@@H]1CCNC1=O)C2(C)C` [Compound 163] were, in that order, greater than 10000 nM and 4630 nM.
For `Cc1ccc(S(=O)(=O)N(C(=O)C(F)(F)F)[C@H](C(=O)N2C[C@H]3[C@@H]([C@H]2C(=O)N[C@H](C#N)C[C@@H]2CCNC2=O)C3(C)C)C(C)(C)C)cc1` [Compound 167], in that order: 20 nM and 120 nM.
Regarding `Cc1cc(S(=O)(=O)N[C@H](C(=O)N2C[C@H]3[C@@H]([C@H]2C(=O)N[C@H](C#N)C[C@@H]2CCNC2=O)C3(C)C)C(C)(C)C)sc1Cl` [Compound 168], the EC50 in the experiment with SARS-CoV-2 replicon (setting [2]) was 41 nM; in experiment [1], 116 nM.
The like results for `Cc1cc(S(=O)(=O)N[C@H](C(=O)N2C[C@H]3[C@@H]([C@H]2C(=O)N[C@H](C#N)C[C@@H]2CCNC2=O)C3(C)C)C(C)(C)C)sc1C` [Compound 169] were, in that order, 37 nM and 163 nM.
For `CCc1ccc(S(=O)(=O)N[C@H](C(=O)N2C[C@H]3[C@@H]([C@H]2C(=O)N[C@H](C#N)C[C@@H]2CCNC2=O)C3(C)C)C(C)(C)C)s1` [Compound 170], in that order: 38 nM and 140 nM.
